Activity calls are given as the source filed them. No rule for the calls is given here.
System: rodent carcinogenicity bioassays, tumor incidence
Assay: CCRIS carcinogenicity studies
Method in brief: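 Archive of carcinogenicity, mutagenicity, tumor promotion and tumor inhibition results drawn from journals, NCI reports and other sources, expert-reviewed; covers 1985-2011 and is no longer updated.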

Question: With `O=CCCCC=O` as the compound, how does the carcinogen call (Species: MOUSE, Strain/Sex: B6C3F1/FEMALE, Route: INHALATION, Dose: 0, 62.5, 125, 250 PPM 6 HR/D 5 D/WK FOR 104 WK (STUDY DURATION: 104 WK), Dose: 0, 62.5, 125, 250 PPM 6 HR/D 5 D/WK FOR 104 WK (STUDY DURATION: 104 WK)) read?
Answer: inactive; negative

Question: And the carcinogen call (Species: MOUSE, Strain/Sex: B6C3F1/FEMALE, Route: INHALATION, Dose: 0, 100 PPB 6 HR/D 5 D/WK FOR 52 OR 78 WK (STUDY DURATION: 78 WK))?
Answer: inactive; negative

Question: And the carcinogen call (Species: MOUSE, Strain/Sex: B6C3F1/MALE, Route: INHALATION, Dose: 0, 62.5, 125, 250 PPM 6 HR/D 5 D/WK FOR 104 WK (STUDY DURATION: 104 WK), Dose: 0, 62.5, 125, 250 PPM 6 HR/D 5 D/WK FOR 104 WK (STUDY DURATION: 104 WK))?
Answer: inactive; negative

Question: What about the carcinogen call (Species: MOUSE, Strain/Sex: B6C3F1/MALE, Route: INHALATION, Dose: 0, 100 PPB 6 HR/D 5 D/WK FOR 52 OR 78 WK (STUDY DURATION: 78 WK)) of the same compound?
Answer: inactive; negative

Question: And the carcinogen call (Species: RAT, Strain/Sex: F344/FEMALE, Route: ORAL, Dose: 0, 50, 250, 1000 PPM IN DRINKING WATER FOR 104 WK (STUDY DURATION: 104 WK), Dose: 0, 50, 250, 1000 PPM IN DRINKING WATER FOR 104 WK (STUDY DURATION: 104 WK))?
Answer: inactive; negative

Question: What about the carcinogen call (Species: RAT, Strain/Sex: F344/MALE, Route: ORAL, Dose: 0, 50, 250, 1000 PPM IN DRINKING WATER FOR 104 WK (STUDY DURATION: 104 WK), Dose: 0, 50, 250, 1000 PPM IN DRINKING WATER FOR 104 WK (STUDY DURATION: 104 WK)) of the same compound?
Answer: inactive; negative

Question: What about the carcinogen call (Species: RAT, Strain/Sex: F344/N/FEMALE, Route: INHALATION, Dose: 0, 250, 500, 750 PPM 6 HR/D 5 D/WK FOR 104 WK (STUDY DURATION: 104 WK), Dose: 0, 250, 500, 750 PPM 6 HR/D 5 D/WK FOR 104 WK (STUDY DURATION: 104 WK)) of the same compound?
Answer: inactive; negative

Question: What about the carcinogen call (Species: RAT, Strain/Sex: F344/N/MALE, Route: INHALATION, Dose: 0, 250, 500, 750 PPM 6 HR/D 5 D/WK FOR 104 WK (STUDY DURATION: 104 WK), Dose: 0, 250, 500, 750 PPM 6 HR/D 5 D/WK FOR 104 WK (STUDY DURATION: 104 WK)) of the same compound?
Answer: inactive; negative

Question: And the carcinogen call (Species: Rat, Strain/Sex: Fischer 344/Female (80/Group), Route: Oral, Dose: 0, 50, 250, 1000 ppm (0; 5.5; 25.1; 85.9 mg/kg/d) in drinking water for 104 wk, study duration 104 wk, Dose: 0, 50, 250, 1000 ppm (0; 5.5; 25.1; 85.9 mg/kg/d) in drinking water for 104 wk, study duration 104 wk, Tumor Site: Type of Lesion: Large granular lymphocyte leukemia (24, 41, 41, 53/100 animals))?
Answer: active; positive

Question: And the carcinogen call (Species: Rat, Strain/Sex: Fischer 344/Male (80/Group), Route: Oral, Dose: 0, 50, 250, 1000 ppm (0; 3.6; 17.1; 63.9 mg/kg/d) in drinking water for 104 wk, study duration 104 wk, Dose: 0, 50, 250, 1000 ppm (0; 3.6; 17.1; 63.9 mg/kg/d) in drinking water for 104 wk, study duration 104 wk)?
Answer: inactive; negative

Question: Which results are given for `COc1ccc(O)cc1`?
Answer: carcinogen call (Species: RAT, Strain/Sex: F344/FEMALE, Route: ORAL, Dose: 0, 2% IN DIET FOR 104 WK (STUDY DURATION: 104 WK), Tumor Site: Type of Lesion: FORESTOMACH: PAPILLOMA, SQUAMOUS CELL CARCINOMA): active; positive; carcinogen call (Species: RAT, Strain/Sex: F344/MALE, Route: ORAL, Dose: 0, 0.4% IN DIET FOR DURATION OF STUDY (STUDY DURATION: 104 WK)): inactive; negative; carcinogen call (Species: RAT, Strain/Sex: F344/MALE, Route: ORAL, Dose: 0, 2% IN DIET FOR 104 WK (STUDY DURATION: 104 WK), Tumor Site: Type of Lesion: FORESTOMACH: PAPILLOMA, SQUAMOUS CELL CARCINOMA): active; positive

Question: For `ClCCCl`, which carcinogen call (Species: MOUSE, Strain/Sex: B6C3F1/FEMALE, Route: GAVAGE, Dose: 0, 149, 299 MG/KG TWA,5 D/WK FOR 78 WK (STUDY DURATION: 91 WK), Dose: 0, 149, 299 MG/KG TWA,5 D/WK FOR 78 WK (STUDY DURATION: 91 WK), Tumor Site: Type of Lesion: LUNG: ALVEOLAR/BRONCHIOLAR ADENOMA, UTERUS (ENDOMETRIUM): STROMAL POLYP, STROMAL SARCOMA, MAMMARY GLAND: ADENOCARCINOMA, Tumor Site: Type of Lesion: LUNG: ALVEOLAR/BRONCHIOLAR ADENOMA, UTERUS (ENDOMETRIUM): STROMAL POLYP, STROMAL SARCOMA, MAMMARY GLAND: ADENOCARCINOMA) is on record?
Answer: active; positive

Question: And the carcinogen call (Species: MOUSE, Strain/Sex: B6C3F1/MALE, Route: GAVAGE, Dose: 0, 97, 195 MG/KG TWA, 5 D/WK FOR 78 WK (STUDY DURATION: 90-91 WK), Dose: 0, 97, 195 MG/KG TWA, 5 D/WK FOR 78 WK (STUDY DURATION: 90-91 WK), Tumor Site: Type of Lesion: LUNG: ALVEOLAR/BRONCHIOLAR ADENOMA)?
Answer: active; positive

Question: What about the carcinogen call (Species: MOUSE, Strain/Sex: EU-PIM-1/FEMALE, Route: GAVAGE, Dose: 0, 100, 300 MG/KG 1/D FOR 40 WK (STUDY DURATION: 40 WK), Dose: 0, 100, 300 MG/KG 1/D FOR 40 WK (STUDY DURATION: 40 WK), Tumor Site: Type of Lesion: LYMPHATIC SYSTEM: LYMPHOMA) of the same compound?
Answer: active; positive

Question: And the carcinogen call (Species: MOUSE, Strain/Sex: EU-PIM-1/MALE, Route: GAVAGE, Dose: 0, 100, 300 MG/KG 1/D FOR 40 WK (STUDY DURATION: 40 WK), Dose: 0, 100, 300 MG/KG 1/D FOR 40 WK (STUDY DURATION: 40 WK))?
Answer: inactive; negative

Question: And the carcinogen call (Species: MOUSE, Strain/Sex: ICR/FEMALE, Route: DERMAL, Dose: 42, 126 MG/APPL/MOUSE IN 0.2 ML ACETONE 3/WK, Tumor Site: Type of Lesion: LUNG: BENIGN PAPILLOMA)?
Answer: active; positive

Question: What about the carcinogen call (Species: RAT, Strain/Sex: OSBORNE-MENDEL/FEMALE, Route: GAVAGE, Dose: 0, 47, 95 MG/KG TWA, 5 D/WK FOR 69 WK (STUDY DURATION: 93-110 WK), Dose: 0, 47, 95 MG/KG TWA, 5 D/WK FOR 69 WK (STUDY DURATION: 93-110 WK), Tumor Site: Type of Lesion: MAMMARY GLAND: ADENOCARCINOMA OR FIBROADENOMA) of the same compound?
Answer: active; positive

Question: And the carcinogen call (Species: RAT, Strain/Sex: OSBORNE-MENDEL/MALE, Route: GAVAGE, Dose: 0, 47, 95 MG/KG TWA, 5 D/WK FOR 69 WK (STUDY DURATION: 101-110 WK), Dose: 0, 47, 95 MG/KG TWA, 5 D/WK FOR 69 WK (STUDY DURATION: 101-110 WK), Tumor Site: Type of Lesion: INTEGUMENTARY SYSTEM (SUBCUTANEOUS TISSUE): FIBROMA, FORESTOMACH: SQUAMOUS CELL CARCINOMA, BLOOD VESSELS: HEMANGIOSARCOM, Tumor Site: Type of Lesion: INTEGUMENTARY SYSTEM (SUBCUTANEOUS TISSUE): FIBROMA, FORESTOMACH: SQUAMOUS CELL CARCINOMA, BLOOD VESSELS: HEMANGIOSARCOM)?
Answer: active; positive

Question: What about the carcinogen call (Species: RAT, Strain/Sex: SPRAGUE-DAWLEY/FEMALE, Route: INHALATION, Dose: 0, 5, 10, 50, 150, 250 PPM IN AIR 7 HR/D 5 D/WK FOR 78 WK (STUDY DURATION: LIFETIME), Dose: 0, 5, 10, 50, 150, 250 PPM IN AIR 7 HR/D 5 D/WK FOR 78 WK (STUDY DURATION: LIFETIME), Tumor Site: Type of Lesion: [BRAIN WAS ONLY SITE EVALUATED]) of the same compound?
Answer: inactive; negative

Question: And the carcinogen call (Species: RAT, Strain/Sex: SPRAGUE-DAWLEY/FEMALE, Route: INHALATION, Dose: 0, 50 PPM 7 HR/D 5 D/WK FOR 2 YR (STUDY DURATION: 2 YR))?
Answer: inactive; negative

Question: What about the carcinogen call (Species: RAT, Strain/Sex: SPRAGUE-DAWLEY/MALE, Route: INHALATION, Dose: 0, 5, 10, 50, 150, 250 PPM IN AIR 7 HR/D 5 D/WK FOR 78 WK (STUDY DURATION: LIFETIME), Dose: 0, 5, 10, 50, 150, 250 PPM IN AIR 7 HR/D 5 D/WK FOR 78 WK (STUDY DURATION: LIFETIME), Tumor Site: Type of Lesion: [BRAIN WAS ONLY SITE EVALUATED]) of the same compound?
Answer: inactive; negative

Question: And the carcinogen call (Species: RAT, Strain/Sex: SPRAGUE-DAWLEY/MALE, Route: INHALATION, Dose: 0, 50 PPM 7 HR/D 5 D/WK FOR 2 YR (STUDY DURATION: 2 YR))?
Answer: inactive; negative

Question: Which carcinogen call (Species: RAT, Strain/Sex: F344/FEMALE, Route: SUBCUTANEOUS, Dose: 6.6 MG/KG 1/WK FOR 10 WK, Tumor Site: Type of Lesion: INJECTION SITE: MALIGNANT FIBROUS HISTIOCYTOMA) does the source give for `CC(=O)OCN(CC(C)C)N=O` here?
Answer: active; positive

Question: For `CC(C)N1C(=O)c2ccccc2NS1(=O)=O`, which carcinogen call (Species: Mouse, Strain/Sex: B6C3F1/Female (70/sex/group), Route: Oral, Dose: 0, 100, 400, 2000 ppm in diet for 2 yr, Dose: 0, 100, 400, 2000 ppm in diet for 2 yr) is on record?
Answer: inactive; negative; purity 93.3%

Question: What about the carcinogen call (Species: Mouse, Strain/Sex: B6C3F1/Male (70/sex/group), Route: Oral, Dose: 0, 100, 400, 2000 ppm in diet for 2 yr, Dose: 0, 100, 400, 2000 ppm in diet for 2 yr, Tumor Site: Type of Lesion: Liver: Combined hepatocellular adenoma and carcinoma (13/49 in controls and 22/49 at highest dose)) of the same compound?
Answer: active; positive; purity 93.3%

Question: What about the carcinogen call (Species: Rat, Strain/Sex: Fischer 344/DU CRJ/Female (70/sex/group), Route: Oral, Dose: 0, 200, 800, 4000 ppm in diet for 2 yr, Dose: 0, 200, 800, 4000 ppm in diet for 2 yr) of the same compound?
Answer: inactive; negative; purity 93.3%

Question: And the carcinogen call (Species: Rat, Strain/Sex: Fischer 344/DU CRJ/Male (70/sex/group), Route: Oral, Dose: 0, 200, 800, 4000 ppm in diet for 2 yr, Dose: 0, 200, 800, 4000 ppm in diet for 2 yr)?
Answer: inactive; negative; purity 93.3%

Source: PubChem BioAssay AID1259411 (Chemical Carcinogenesis Research Information System (CCRIS), 2018)
